Assay results taken from patent publication US9932637B2, “Genetic polymorphisms associated with cardiovascular disorders and drug response, methods of detection and uses thereof” (CELERA CORPORATION, priority 2003, dated 2018).

Tested on: patients with prior myocardial infarction (CARE study)
Experiment: CARE: association of SNPs with pravastatin treatment in cardiovascular events prevention (logistic regression, odds ratio pravastatin vs placebo by genotype; Table 8)
Type: in vivo, human
Excerpt: In order to identify genetic markers associated with acute coronary events (e.g. MI, stroke, unstable angina, congestive heart failure, etc.) or response to statin treatment for the prevention of coronary events, samples from the Cholesterol and Recurrent Events (CARE) study (a randomized multicentral double-blinded trial on secondary prevention of acute coronary events with pravastatin) (Sacks et al., 1991, Am. J. Cardiol. 68: 1436-1446) were genotyped. A well-documented myocardial infarction (MI) was one of the enrollment criteria for entry into the CARE study. Patients were enrolled in the CARE trial from 80 participating study centers. […] Patients were randomized to receive either 40 mg of pravastatin once daily or a matching placebo. The primary endpoint of the trial was death from coronary heart disease and the median duration of follow-up was 5.0 years (range, 4.0 to 6.2 years). […] Secondary endpoints of other related cardiovascular or metabolic disease events, and changes in clinical variables were also recorded in pravastatin-treated and placebo groups. All individuals included in the study had signed a written informed consent form and the study protocol was approved by the respective Institutional Review Boards (IRBs).
For genotyping SNPs in CARE patient samples, DNA was extracted from blood samples using conventional DNA extraction methods such as the QIA-amp kit from Qiagen. Genotypes were obtained on an ABI PRISM® 7900HT Sequence Detection PCR system (Applied Biosystems, Foster City, Calif.) by kinetic allele-specific PCR, similar to the method described by Germer et al. (Germer S., Holland M. J., Higuchi R. 2000, Genome Res. 10: 258-266).
Statistical analysis for association of SNPs with pravastatin treatment in cardiovascular events prevention (Table 8) was carried out using an overall logistic regression model that included an intercept, a parameter for the effect of a genotype containing two rare alleles versus a genotype containing no rare alleles, a parameter for the effect of a genotype containing one rare allele versus a genotype containing no rare alleles, a parameter for the effect of use of pravastatin versus the use of placebo, and parameters for the interaction effects between SNP genotypes and pravastatin use. The test of the overall model is a chi-square test with two degrees of freedom for analyses containing all three genotypes, and one degree of freedom for analyses containing two genotypes.
Effect sizes were estimated through odds ratios (pravastatin group versus placebo) for carriers of each genotype (groups of 0, 1, and 2 minor allele carriers). The effect was considered to be significant if p-value for testing whether any of the interactions between SNP genotypes and pravastatin use were <0.05. […] Odds ratios less than one indicate that the specific SNP allele has a protective effect and odds ratios greater than one indicate that the specific SNP allele has an adverse effect.

[1] = CXCL16 hCV8718197, All Patients, Cardiovascular Mortality
[2] = CXCL16 hCV8718197, All Patients, Coronary Artery Bypass or Revascularization
[3] = CXCL16 hCV8718197, All Patients, Fatal Atherosclerotic Cardiovascular Disease
[4] = CXCL16 hCV8718197, All Patients, Fatal CHD/Definite Non-fatal MI
[5] = CXCL16 hCV8718197, All Patients, Fatal/Non-fatal MI (def & prob)
[6] = CXCL16 hCV8718197, All Patients, Hosp. for Cardiovascular Disease
[7] = CXCL16 hCV8718197, All Patients, Total Cardiovascular Disease Events
[8] = CXCL16 hCV8718197, All Patients, Total Coronary Heart Disease
[9] = CYP4F2 hCV16179493, All Patients, 0 Rare Alleles, Prava arm
[10] = CYP4F2 hCV16179493, All Patients, 1 Rare Allele, Prava arm
[11] = CYP4F2 hCV16179493, All Patients, 2 Rare Alleles, Prava arm
[12] = ELN hCV1253630, All Patients, 0 Rare Alleles, Prava, n/total 45/543

SMILES: CC[C@H](C)C(=O)O[C@H]1C[C@H](O)C=C2C=C[C@H](C)[C@H](CC[C@@H](O)C[C@@H](O)CC(=O)O)[C@H]21 [pravastatin]
- Fatal Atherosclerotic Cardiovascular Disease, n/total (%) (CXCL16 hCV8718197, All Patients, 2 Rare Alleles, Prava, n/total 19/292): (6.5%)
- Fatal CHD/Definite Non-fatal MI, n/total (%) (CXCL16 hCV8718197, All Patients, 2 Rare Alleles, Prava, n/total 34/292): (11.6%)
- Fatal/Non-fatal MI (def & prob), n/total (%) (CXCL16 hCV8718197, All Patients, 2 Rare Alleles, Prava, n/total 36/292): (12.3%)
- Coronary Artery Bypass or Revascularization, n/total (%) (CXCL16 hCV8718197, All Patients, 2 Rare Alleles, Prava, n/total 43/292): (14.7%)
- Total Coronary Heart Disease Events, n/total (%) (CXCL16 hCV8718197, All Patients, 2 Rare Alleles, Prava, n/total 94/292): (32.2%)
- Hosp. for Cardiovascular Disease, n/total (%) (CXCL16 hCV8718197, All Patients, 2 Rare Alleles, Prava, n/total 124/292): (42.5%)
- Total Cardiovascular Disease Events, n/total (%) (CXCL16 hCV8718197, All Patients, 2 Rare Alleles, Prava, n/total 130/292): (44.5%)
- Prava vs. Placebo Odds Ratio, 0 Rare Alleles [1]: 0.45
- Prava vs. Placebo Odds Ratio, 1 Rare Alleles [1]: 0.80
- Prava vs. Placebo Odds Ratio, 2 Rare Alleles [1]: 2.08
- Prava vs. Placebo Odds Ratio, 0 Rare Alleles [2]: 0.45
- Prava vs. Placebo Odds Ratio, 1 Rare Alleles [2]: 0.93
- Prava vs. Placebo Odds Ratio, 2 Rare Alleles [2]: 0.70
- Prava vs. Placebo Odds Ratio, 0 Rare Alleles [3]: 0.45
- Prava vs. Placebo Odds Ratio, 1 Rare Alleles [3]: 0.76
- Prava vs. Placebo Odds Ratio, 2 Rare Alleles [3]: 2.08
- Prava vs. Placebo Odds Ratio, 0 Rare Alleles [4]: 0.44
- Prava vs. Placebo Odds Ratio, 1 Rare Alleles [4]: 0.82
- Prava vs. Placebo Odds Ratio, 2 Rare Alleles [4]: 1.05
- Prava vs. Placebo Odds Ratio, 0 Rare Alleles [5]: 0.38
- Prava vs. Placebo Odds Ratio, 1 Rare Alleles [5]: 0.80
- Prava vs. Placebo Odds Ratio, 2 Rare Alleles [5]: 0.92
- Prava vs. Placebo Odds Ratio, 0 Rare Alleles [6]: 0.59
- Prava vs. Placebo Odds Ratio, 1 Rare Alleles [6]: 0.89
- Prava vs. Placebo Odds Ratio, 2 Rare Alleles [6]: 0.80
- Prava vs. Placebo Odds Ratio, 0 Rare Alleles [7]: 0.56
- Prava vs. Placebo Odds Ratio, 1 Rare Alleles [7]: 0.90
- Prava vs. Placebo Odds Ratio, 2 Rare Alleles [7]: 0.81
- Prava vs. Placebo Odds Ratio, 0 Rare Alleles [8]: 0.57
- Prava vs. Placebo Odds Ratio, 1 Rare Alleles [8]: 0.92
- Prava vs. Placebo Odds Ratio, 2 Rare Alleles [8]: 0.82
- Cardiovascular Mortality, n/total (%) [9]: (3.3%)
- Catheterization, n/total (%) [9]: (10.5%)
- Fatal Atherosclerotic Cardiovascular Disease, n/total (%) [9]: (3.2%)
- Fatal Coronary Heart Disease, n/total (%) [9]: (2.5%)
- Total Mortality, n/total (%) [9]: (4.7%)
- Cardiovascular Mortality, n/total (%) [10]: (4.4%)
- Catheterization, n/total (%) [10]: (8.6%)
- Fatal Atherosclerotic Cardiovascular Disease, n/total (%) [10]: (4.4%)
- Fatal Coronary Heart Disease, n/total (%) [10]: (4.2%)
- Total Mortality, n/total (%) [10]: (6.6%)
- Cardiovascular Mortality, n/total (%) [11]: (2.1%)
- Catheterization, n/total (%) [11]: (16.7%)
- Fatal Atherosclerotic Cardiovascular Disease, n/total (%) [11]: (2.1%)
- Fatal Coronary Heart Disease, n/total (%) [11]: (2.1%)
- Total Mortality, n/total (%) [11]: (4.2%)
- Non-fatal MI (def & prob), n/total (%) (ELN hCV1253630, All Patients, 0 Rare Alleles, Prava, n/total 42/543): (7.7%)
- Fatal CHD/Definite Non-fatal MI, n/total (%) [12]: (8.3%)
- Fatal/Non-fatal MI (def & prob), n/total (%) [12]: (8.3%)
- Total Coronary Heart Disease Events, n/total (%) (ELN hCV1253630, All Patients, 0 Rare Alleles, Prava, n/total 146/543): (26.9%)
- Hosp. for Cardiovascular Disease, n/total (%) (ELN hCV1253630, All Patients, 0 Rare Alleles, Prava, n/total 204/543): (37.6%)
- Total Cardiovascular Disease Events, n/total (%) (ELN hCV1253630, All Patients, 0 Rare Alleles, Prava, n/total 212/543): (39.0%)
- Non-fatal MI (def & prob), n/total (%) (ELN hCV1253630, All Patients, 1 Rare Allele, Prava, n/total 62/724): (8.6%)
- Fatal CHD/Definite Non-fatal MI, n/total (%) (ELN hCV1253630, All Patients, 1 Rare Allele, Prava, n/total 65/724): (9.0%)
- Fatal/Non-fatal MI (def & prob), n/total (%) (ELN hCV1253630, All Patients, 1 Rare Allele, Prava, n/total 68/724): (9.4%)
- Total Coronary Heart Disease Events, n/total (%) (ELN hCV1253630, All Patients, 1 Rare Allele, Prava, n/total 206/724): (28.5%)
- Hosp. for Cardiovascular Disease, n/total (%) (ELN hCV1253630, All Patients, 1 Rare Allele, Prava, n/total 291/724): (40.2%)
- Total Cardiovascular Disease Events, n/total (%) (ELN hCV1253630, All Patients, 1 Rare Allele, Prava, n/total 298/724): (41.2%)
